According to patent US12115226B2, “Linker containing arylnitro, antibody-drug conjugate containing linker and use of linker” (Academy of Military Medical Sciences, priority 2018, dated 2024):
Square brackets hold non-standard residues; d marks the D form. Peptide text beside a SMILES is read from it. * marks the point of attachment. Dolaproine = CO[C@@H]([C@@H]1CCCN1)[C@@H](C)C(=O)O; Dil = CC[C@H](C)[C@H](NC)[C@@H](CC(=O)O)OC; X1 = C[C@@H](N*)[C@@H](O)c1ccccc1; NMeV = CN[C@H](C(=O)O)C(C)C

Columns and labels:
[1] = test system: NCI-N87 human gastric cancer cell xenograft; test: Efficacy in nude mice xenograft model of NCI-N87 human gastric cancer cell
Experimental: The tested drug was dissolved in physiological saline and administered via tail vein injection.
The NCI-N87 gastric adenocarcinoma cells (purchased from ATCC) were cultured with DMEM medium containing inactivated 10% fetal bovine serum, 100 U/mL penicillin, 100 μg/mL streptomycin, and 2 mM glutamine in an incubator at 37° C. and 5% CO2. The initial concentration of the cultured cell was 1×10^6 cells/ml, and the cells were divided into bottles for passage every 3 to 4 days after the cells were full. The cancer cells in the logarithmic growth phase at 5×10^6 cells/0.1 mL were inoculated under skin of right lateral thorax of BALB/c nude mice (female, 6-8 weeks old, 18-22 g, purchased from Beijing Ankai Yibo Biotechnology Co., Ltd.). When the tumor grew to a volume of 150 mm^3, the modeling was successful. Then the administration was started, 6 mice in each dose group were administered at the specified dose once a week, the administration volume was 5 mL/kg, and the administration was performed 4 times in total. The tumor volume was measured twice a week by measurement of the long and short diameters of tumor with vernier caliper. The volume calculation formula was: volume=0.5×long diameter×short diameter^2. When the tumor volume was measured, the mice were weighed at the same time. The relationship between the change of mouse body weight and the time of administration was recorded. […]

[2] = test system: antigen HER2-positive gastric cancer cell line NCI-N87; test: In vitro cytotoxicity of ADC (CellTiter Glo), NCI-N87; format: cell-based, human; details: 0.1% O2, 168 hours, ADC DAR about 4
Experimental: (§1) The vial containing the target cells was gently stirred in a 37° C. water bath to be thawed.
(§2) After the content was thawed, the vial was taken out from the water bath and decontaminated by immersion or spraying with 70% ethanol.
(§3) The cells were re-suspended in the culture medium, settled and distributed into a culture flask with an area of 75 cm^2.
(§4) The resulting culture was incubated in a Galaxy® CO2 incubator (48R, #C048312044) with 5% CO2 at 37° C., and the oxygen concentration in the incubator was 0.1%.
(§5) The cells were passaged three times a week at a ratio of 1:4 in a medium containing 10% […] (heat inactivated) and 1% penicillin-streptomycin solution.
(§6) For the passaged cells, the adherent cells were firstly rinsed with trypsin/EDTA solution (3 mL), then trypsin/EDTA (3 mL, T75 flask) was added, and spun to coat the cells evenly. The resulting culture was incubated at 37° C. until the cells were detached. It was observed by microscope to verify that the cells had been detached, then an equal volume of cell culture medium was added to inactivate trypsin, the detached cells were collected, and centrifuged at 200 g for 5 minutes, and then re-suspended in a fresh culture medium. […]
(§7) The cells were harvested and counted to determine the number of cells;

[3] = test system: antigen HER2-positive ovarian cancer cell line SK-OV-3; test: In vitro cytotoxicity of ADC (CellTiter Glo), SK-OV-3; format: cell-based; details: 0.1% O2, 168 hours, ADC DAR about 4
Experimental: as §1, §2, §3, §4, §5, §6, §7

[4] = test system: antigen HER2-positive breast cancer cell line HCC1954; test: In vitro cytotoxicity of ADC (CellTiter Glo), HCC1954; format: cell-based; details: 0.1% O2, 168 hours, ADC DAR about 4
Experimental: as §1, §2, §3, §4, §5, §6, §7

[5] = test system: antigen HER2-negative breast cancer cell line MDA-MB-468; test: In vitro cytotoxicity of ADC (CellTiter Glo), MDA-MB-468; format: cell-based; details: 0.1% O2, 168 hours, ADC DAR about 4
Experimental: as §1, §2, §3, §4, §5, §6, §7

[6] = test system: antigen HER2-positive breast cancer cell line BT-474; test: In vitro cytotoxicity of ADC (CellTiter Glo), BT-474; format: cell-based, human; details: 0.1% O2, 168 hours, ADC DAR about 4
Experimental: as §1, §2, §3, §4, §5, §6, §7

[7] = test system: antigen HER2-weakly positive breast cancer cell line MCF-7; test: In vitro cytotoxicity of ADC (CellTiter Glo), MCF-7; format: cell-based; details: 0.1% O2, 168 hours, ADC DAR about 4
Experimental: as §1, §2, §3, §4, §5, §6, §7

[8] = test system: antigen HER2-positive breast cancer cell line BT-474; test: Hypoxia-dependent cytotoxicity of ADC-1 (different oxygen environments); details: for IC50: Homo sapiens
Experimental: The tested cell line was antigen HER2-positive breast cancer cell line BT-474. The cell culture process was as described in Example 12, in which the oxygen concentrations in the cell incubator were separately set to 0.1%, 1.0%, 5.0%, 10.0% and 20.0%.

CC(=O)O[C@@]12CO[C@@H]1C[C@H](O)[C@@]1(C)C(=O)[C@H](O)C3=C(C)[C@@H](OC(=O)[C@H](O)[C@@H](NC(=O)OC(C)(C)C)c4ccccc4)C[C@@](O)([C@@H](OC(=O)c4ccccc4)[C@H]21)C3(C)C [Doxetaxel]
P(Vehicle VS Doxetaxel), body weight [1]: 0.0422
body weight of animals in the course of administration and treatment ([1]; nude mice): significant weight loss

CC[C@H](C)[C@@H]([C@@H](CC(=O)N1CCC[C@H]1[C@H](OC)[C@@H](C)C(=O)N[C@H](C)[C@@H](O)c1ccccc1)OC)N(C)C(=O)[C@@H](NC(=O)[C@@H](NC)C(C)C)C(C)C [MMAE, monomethyl auristatin E] (H-[NMeV]V[Dil][Dolaproine]-X1)
IC50 [2]: 0.23 nM
IC50 [3]: 0.54 nM
IC50 [4]: 0.07 nM
IC50 [5]: 0.13 nM
IC50 [6]: 0.06 nM
IC50 [7]: 3.81 nM

CC[C@H](C)[C@@H]([C@@H](CC(=O)N1CCC[C@H]1[C@H](OC)[C@@H](C)C(=O)N[C@H](C)[C@@H](O)c1ccccc1)OC)N(C)C(=O)[C@@H](NC(=O)[C@H](C(C)C)N(C)C(=O)OCc1ccc(OCc2cnc([N+](=O)[O-])n2C)c(NC(=O)CNCCCCCCN2C(=O)C=CC2=O)c1)C(C)C [L01-MMAE]
IC50 ([8]; BT-474, read-out: IC50, cytotoxicity to BT-474 cells, O2 0.1%): 3.1 nM
IC50 ([8]; BT-474, read-out: IC50, cytotoxicity to BT-474 cells, O2 1.0%): 3.11 nM
IC50 ([8]; BT-474, read-out: IC50, cytotoxicity to BT-474 cells, O2 5.0%): 4.32 nM
IC50 ([8]; BT-474, read-out: IC50, cytotoxicity to BT-474 cells, O2 10.0%): 8.94 nM
IC50 ([8]; BT-474, read-out: IC50, cytotoxicity to BT-474 cells, O2 20.0%): 5.39 nM
increase of activity under hypoxic condition compared with normoxic condition ([8]; oxygen 0.1% versus 20%, BT-474): ~2 times
